We go through 15 molecules from ChEMBL document CHEMBL1156757, “Dihydroxyphenylisoindoline amides as orally bioavailable inhibitors of the heat shock protein 90 (hsp90) molecular chaperone” (J Med Chem, 2010).

A word on the clearance: it is the rate of elimination divided by the concentration. A word on the AUC(0-inf): it is the area under the concentration-time curve extrapolated to infinity. For orientation: Vd means the apparent volume that relates the amount in the body to the concentration in plasma or blood. Low values mean confinement near the circulation, high ones extensive tissue distribution. One may read the half-life as the time in which the quantity being followed falls by half. A lower half-life goes with fast loss. As usually defined, the bioavailability is dose-corrected exposure relative to a reference, in per cent. The low end stands for little systemic uptake, the high end for much systemic uptake. As usually defined, the IC50 is the point on the concentration scale where inhibition reaches its midpoint. Read a high IC50 as weaker potency in that assay.

Series [1] has as its system Liver microsomes. The series is described as follows: Hepatic clearance in human liver microsomes […]. Format: ADME, Microsome. For orientation: Microsomes from liver hold many membrane-bound enzymes, among them those of drug oxidation.
Series [2] has as its system Liver microsomes. Nature of the series: Hepatic clearance in rat liver microsomes […]. Format: ADME, Microsome.
A short description of series [3]: Clearance in rat. Format: ADME, organism-based. Particulars: in vivo.
Series [4] in a line: AUC (0 to infinity) in rat at 10 mg/kg, po. Particulars: plasma. Format: ADME, organism-based. The arrangement: time infinity, dose 10 mg/kg, route oral.
A short description of series [5]: AUC (0 to infinity) in rat at 2.5 mg/kg, iv. Format: ADME, organism-based. Also on record: time infinity, dose 2.5 mg/kg, route intravenous. Particulars: plasma.
The nature of series [6]: Volume of distribution in rat. Format: ADME, organism-based. Particulars: in vivo.
A short description of series [7]: Half life in rat. Particulars: in vivo. Format: ADME, organism-based.
Series [8] can be described thus: Oral bioavailability in rat. Format: ADME, organism-based. Particulars: in vivo.
Series [9] in a line: Half life in mouse at 20 mg/kg, iv. Format: ADME, organism-based. The arrangement: dose 20 mg/kg, route intravenous. Particulars: in vivo.
Series [10] is described as follows: Half life in mouse at 100 mg/kg, po. Format: ADME, organism-based. The arrangement: dose 100 mg/kg, route oral. Particulars: in vivo.
The test system of series [11] is Mus musculus. The series is described as follows: Free plasma concentration in mouse at 20 mg/kg, iv after 1 hr. Format: ADME, organism-based. Also on record: dose 20 mg/kg, route intravenous. Particulars: in vivo.
Series [12] deals with Mus musculus. The series is described as follows: Free plasma concentration in mouse at 100 mg/kg, ip after 1 hr. Format: ADME, organism-based. Particulars: in vivo. The arrangement: dose 100 mg/kg, route intraperitoneal.
In series [13] the test system is Mus musculus. The series is described as follows: Free plasma concentration in mouse at 100 mg/kg, po after 1 hr. The arrangement: dose 100 mg/kg, route oral. Format: ADME, organism-based. Particulars: in vivo.
Series [14] deals with Mus musculus. The series is described as follows: Free plasma concentration in mouse at 20 mg/kg, iv after 4 hrs. Particulars: in vivo. Also on record: dose 20 mg/kg, route intravenous. Format: ADME, organism-based.
Series [15] relates to Mus musculus. Nature of the series: Free plasma concentration in mouse at 100 mg/kg, ip after 4 hrs. Format: ADME, organism-based. Also on record: dose 100 mg/kg, route intraperitoneal. Particulars: in vivo.
Series [16] deals with Mus musculus. Nature of the series: Free plasma concentration in mouse at 100 mg/kg, po after 4 hrs. The arrangement: dose 100 mg/kg, route oral. Particulars: in vivo. Format: ADME, organism-based.
The target of series [17] is Heat shock protein HSP90 (Homo sapiens, UniProt P07900+P08238).

With `CCNC(=O)[C@H]1c2ccccc2CN1C(=O)c1cc(Cl)c(O)cc1O`, the CLH in [1] was 7 µL/min; in series [2], 0.2 µL/min. Moreover, the clearance in [3] is 23.3 mL/min/kg. For the same molecule, the AUC(0-inf) worked out at 1300 ng·h/mL in series [4] and 1700 ng·h/mL in [5]. For the same molecule, the Vd in series [6] was found to be 3.3 L/kg. Moreover, the values for the half-life in [7], in [9] and in series [10] were 5.2 h, 5.2 h and 8.3 h, respectively. Besides, the bioavailability in [8] worked out at 20%. For the same molecule, the “Cp(f)” value was 286 nM in series [11]; 16000 nM in [12]; 810 nM in [13]; 76 nM in [14]; 410 nM in series [15]; 330 nM in [16]. The IC50 in series [17] was found to be 300 nM.
Turning to `O=C(NC1CCCCC1)[C@H]1CCCN1C(=O)c1cc(Cl)c(O)cc1O`, the CLH in [1] stood at 9 µL/min.
In turn, `O=C(NCc1ccccc1)C1c2ccccc2CN1C(=O)c1cc(Cl)c(O)cc1O` (stereo unspecified) gave a CLH in series [1] of 25 µL/min. The same molecule displayed an IC50 in series [17] of 700 nM.
Molecule `CCCNC(=O)C1c2ccccc2CN1C(=O)c1cc(Cl)c(O)cc1O` (stereo unspecified) yielded a CLH in series [1] of 9 µL/min.
Same read-out and setting: the result for `CN(C)C(=O)[C@H]1CCCN1C(=O)c1cc(Cl)c(O)cc1O` reads below 7 µL/min.
In turn, `CNC(=O)C1c2ccccc2CN1C(=O)c1cc(Cl)c(O)cc1O` (stereo unspecified) showed a CLH in series [1] below 2 µL/min. The molecule further showed an IC50 in [17] of 1700 nM.
On the same counts, the results for `Cc1ccccc1[C@H]1CCCN1C(=O)c1cc(Cl)c(O)cc1O` are 129 µL/min and 1000 nM.
In turn, `O=C(c1cc(Cl)c(O)cc1O)N1CCCC1` displayed a CLH in series [1] of 56 µL/min.
The molecule `O=C([C@H]1CCCN1C(=O)c1cc(Cl)c(O)cc1O)N1CCCC1` came in with a CLH in series [1] below 9 µL/min.
Take `O=C([C@H]1c2ccccc2CN1C(=O)c1cc(Cl)c(O)cc1O)N1CCCC1`: the CLH was found to be 11 µL/min in series [1] and 0.2 µL/min in [2]. The clearance in series [3] is 23.3 mL/min/kg. The area under the curve AUC(0-inf) in series [4] was determined as 2900 ng·h/mL; in series [5], 2100 ng·h/mL. The volume of distribution (Vd) in [6] is 8.1 L/kg. The half-life in [7] was 7.9 h. Further, the bioavailability in series [8] stood at 35%. The same molecule registered an IC50 in [17] of 600 nM.
In the case of `CCNC(=O)C1c2ccccc2CN1C(=O)c1cc(Cl)c(O)cc1O` (stereo unspecified), the CLH in [1] turned out to be 4.7 µL/min. In [17], the 50% inhibitory concentration (IC50) turned out to be 300 nM.
On the same counts, the results for `C=CCNC(=O)C1c2ccccc2CN1C(=O)c1cc(Cl)c(O)cc1O` (stereo unspecified) are 8.5 µL/min and 1500 nM.
On the same counts, the results for `CN(C)C(=O)C1c2ccccc2CN1C(=O)c1cc(Cl)c(O)cc1O` (stereo unspecified) are 2.4 µL/min and 1500 nM.
On the same counts, the results for `O=C(C1c2ccccc2CN1C(=O)c1cc(Cl)c(O)cc1O)N1CCCC1` (stereo unspecified) are 2 µL/min and 600 nM.
`CO[C@H]1/C=C\C=C(/C)C(=O)NC2=CC(=O)C(NCCN(C)C)=C(C[C@@H](C)C[C@H](OC)[C@H](O)[C@@H](C)/C=C(\C)[C@@H]1OC(N)=O)C2=O` [ALVESPIMYCIN] registered a CLH in series [1] below 3 µL/min.
